pIC50: −log10 of the molar value. Calls of active or inactive are those of the source. The calls are words filed in the database; no cut-off is given here.
Legend:
SNU-475 [1] = experiment: Cytotoxicity against human SNU-475 cells assessed as reduction in cell viability incubated for 48 hrs by MTT assay; assay type: functional, cell-based; conditions: SNU-475, 48 h
Mahlavu [2] = experiment: Induction of apoptosis in human Mahlavu cells assessed as cleaved Caspase 9 level at 0.5 uM incubated for 24 hrs by Western blotting analysis; assay type: functional, cell-based
Hep 3B2 = experiment: Induction of apoptosis in human Hep3B cells assessed as cleaved Caspase 7 level at 0.5 uM incubated for 24 hrs by Western blotting analysis; assay type: functional, cell-based
SNU-449 [3] = experiment: Induction of apoptosis in human SNU-449 cells assessed as necrotic cells at 1.5 uM incubated for 24 hrs by Annexin-V/7-AAD staining based muse cell analyzer method (reference value: 0.95 %); assay type: functional
SNU-449 [4] = experiment: Induction of apoptosis in human SNU-449 cells assessed as early apoptotic cells at IC50 concentration incubated for 24 hrs in presence of Z-VAD-fmk by Annexin-V/7-AAD staining based muse cell analyzer method (reference value: 3.95 %); assay type: functional
Mahlavu [5] = experiment: Induction of autophagy in human Mahlavu cells assessed as upregulation of LC3A/B II level by Western blot analysis; assay type: functional, cell-based; conditions: dose 0.1-0.5 µM
Mahlavu [6] = experiment: Cytotoxicity against human Mahlavu cells assessed as reduction in cell viability at 0.5 uM incubated for 24 hrs in presence of 3-Methyladenine by MTT assay; assay type: functional, cell-based
SNU-475 [7] = experiment: Cytotoxicity against human SNU-475 cells assessed as reduction in cell viability at 0.5 uM incubated for 24 hrs in presence of 3-Methyladenine by MTT assay; assay type: functional, cell-based
[8] = Inhibition of PI3K/Akt/mTOR signaling pathway in human Hep3B cells assessed as reduction in phosphorylation of GSK3 alpha/beta incubated for 1 hr under normoxia condition by Western blotting analysis; assay type: cell-based; conditions: dose 0.25-1 µM
SNU-449 [9] = experiment: Cytotoxicity against human SNU-449 cells assessed as reduction in cell viability incubated for 24 hrs under normoxia condition by MTT assay; assay type: functional, cell-based
SNU-475 [10] = experiment: Induction of autophagy in human SNU-475 cells assessed as increased expression of LC3A/B II level incubated for 24 hrs under hypoxia condition by Western blot analysis; assay type: functional, cell-based; conditions: dose 0.1-0.5 µM
Mahlavu [11] = experiment: Induction of autophagy in human Mahlavu cells assessed as increased expression of LC3 A/B II at 0.5 uM incubated for 24 hrs in presence of chloroquine under hypoxia condition by Western blot analysis; assay type: functional, cell-based

COc1ccc(-c2ccc3ncc4c(c3c2)n(-c2ccc(N3CCNCC3)c(C(F)(F)F)c2)c(=O)n4C)cn1 [BGT-226 FREE BASE]
pIC50 (SNU-475 [1]): 6.00 | Activity (Mahlavu [2]): Active | Activity (Hep 3B2): Active | Activity (SNU-449 [3]): 1.02% | Activity (SNU-449 [4]): 11.94% | Activity (Mahlavu [5]): Dose-Dependent Effect | Activity (Mahlavu [6]): Active | Activity (SNU-475 [7]): Active | inhibition [8]: Dose-Dependent Effect | Activity (SNU-449 [9]): Active | Activity (SNU-475 [10]): Dose-Dependent Effect | Activity (Mahlavu [11]): Active

Source: ChEMBL document CHEMBL5647692, “The novel dual PI3K/mTOR inhibitor NVP-BGT226 displays cytotoxic activity in both normoxic and hypoxic hepatocarcinoma cells” (Oncotarget, 2015)
